These molecules were tested against B-Raf (V600E)-kinase (Homo sapiens, UniProt P15056, V600E) (assay: Kinase test B-Raf (V600E)). Settings: compound concentration 2 μM; 100% = no inhibition, 0% = total inhibition; read-out: % CTL (residual activity of the enzyme relative to DMSO control).
Assay type: biochemical
Description: In a dilution series 10 μL of test substance solution are placed in a multiwell plate. The dilution series is selected so that generally a range of concentrations of 2 μM to 0.119 nM or 0.017 nM is covered. If necessary the initial concentration of 2 μM is changed to 50 μM, 10 μM or 0.4 μM or 0.2857 μM and further dilution is carried out accordingly. The final concentration of DMSO is 5%. 10 μL of the B-Raf (V600E)-kinase solution are pipetted in (containing 0.5 ng B-Raf (V600E)-kinase in 20 mM Tris-HCl pH 7.5, 0.1 mM EDTA, 0.1 mM EGTA, 0.286 mM sodium orthovanadate, 10% glycerol, 1 mg/mL bovine serum albumin, 1 mM dithiothreitol) and the mixture is incubated for 1 h at RT under with shaking The kinase reaction is started by the addition of 20 μL ATP solution [final concentration: 250 μM ATP, 30 mM Tris-HCl pH 7.5, 0.02% Brij, 0.2 mM sodium orthovanadate, 10 mM magnesium acetate, 0.1 mM EGTA, phosphatase cocktail (Sigma, # P2850, dilution recommended by the manufacturer), 0.1 mM EGTA] and 10 μL MEK1 solution [containing 50 ng biotinylated MEK1 (prepared from purified MEK1 according to standard procedure, e.g. with EZ-Link Sulpho-NHS-LC-Biotin reagent, Pierce, # 21335) and carried out for 60 min at RT with constant shaking. The reaction is stopped by the addition of 12 μL of a 100 mM EDTA solution and incubation is continued for a further 5 min. 55 μL of the reaction solution are transferred into a streptavidin-coated plate (e.g. Streptawell HighBond, Roche, #11989685001) and shaken gently for 1 h at RT, in order to bind biotinylated MEK1 to the plate. After elimination of the liquid the plate is washed five times with 200 μL of 1×PBS and 100 μL solution of primary antibody plus europium-labelled secondary antibody [Anti Phospho-MEK (Ser217/221), Cell Signaling, # 9121 and Eu-N1 labeled goat-anti-rabbit antibody, Perkin Elmer, #AD0105], the primary antibody is diluted 1:2000 and the secondary antibody is diluted to 0.4-0.5 μg/mL in Delfia Assay Buffer (Perkin Elmer, #1244-111). After 1 h shaking at RT the solution is poured away and washed five times with 200 μL Delfia Wash Buffer (Perkin Elmer, #4010-0010/#1244-114). After the addition of 200 μL Enhancement Solution (Perkin Elmer, #4001-0010/#1244-105) the mixture is shaken for 10 min at RT and then measured in a Wallac Victor using the program “Delfia Time Resolved Fluorescence (Europium)”. IC50 values are obtained from these dosage-activity curves using a software program (GraphPadPrizm).
A value of 100% indicates no inhibition while a value of 0% indicates total inhibition. The % CTL values denote the residual activity of the enzyme after the addition of the inhibitory compound in the solvent DMSO in relation to the enzyme activity in the solvent DMSO without the addition of a compound (control). The values were determined using the B-Raf(V600E)-kinase test described above.

B-Raf (V600E)-kinase, sequence (P15056 whole entry V600E): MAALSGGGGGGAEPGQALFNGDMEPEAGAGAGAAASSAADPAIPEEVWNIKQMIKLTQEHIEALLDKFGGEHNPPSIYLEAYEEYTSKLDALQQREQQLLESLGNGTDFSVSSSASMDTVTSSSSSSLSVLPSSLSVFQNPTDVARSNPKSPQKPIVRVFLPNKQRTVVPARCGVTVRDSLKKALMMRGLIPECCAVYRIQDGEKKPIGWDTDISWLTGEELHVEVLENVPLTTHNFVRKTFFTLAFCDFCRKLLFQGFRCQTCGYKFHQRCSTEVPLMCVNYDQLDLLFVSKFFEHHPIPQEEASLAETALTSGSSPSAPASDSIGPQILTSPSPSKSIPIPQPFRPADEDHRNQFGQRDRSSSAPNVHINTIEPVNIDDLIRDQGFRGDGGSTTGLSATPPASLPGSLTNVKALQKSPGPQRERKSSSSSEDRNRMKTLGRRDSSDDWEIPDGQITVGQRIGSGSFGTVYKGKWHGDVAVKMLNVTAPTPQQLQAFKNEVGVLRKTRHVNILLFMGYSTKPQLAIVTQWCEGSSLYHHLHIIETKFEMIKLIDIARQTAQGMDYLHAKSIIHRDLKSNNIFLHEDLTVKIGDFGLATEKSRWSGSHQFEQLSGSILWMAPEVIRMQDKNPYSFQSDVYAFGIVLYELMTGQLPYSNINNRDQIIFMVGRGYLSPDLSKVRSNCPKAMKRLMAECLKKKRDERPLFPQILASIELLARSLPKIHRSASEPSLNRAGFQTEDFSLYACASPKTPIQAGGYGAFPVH

First: Cc1ncc(C(=O)Nc2cc(C(C)(C)C)on2)cc1-n1cc(-c2cnn(C)c2C)nn1 [Example I-1]
Second: Cc1ncc(C(=O)Nc2cc(C(C)(C)C)no2)cc1-n1cc(-c2cnn(C)c2C)nn1 [Example I-42]
The remaining activity at 2 µM of the first is higher: 7.6% for the first, 1.6% for the second.

First: Cc1ncc(C(=O)Nc2cc(C(F)(F)F)ccn2)cc1-n1cc(-c2cnn(C)c2C)nn1 [Example I-2]
Second: Cc1ccc(C(F)(F)F)cc1NC(=O)c1cnc(C)c(-n2cc(-c3cnn(C)c3C)nn2)c1 [Example I-8]
The remaining activity at 2 µM of the first is higher: 8% for the first, 1.6% for the second.

Compared with `Cc1ncc(C(=O)Nc2cc(N3CCN(C)CC3)cc(C(F)(F)F)c2)cc1-n1cc(-c2cnn(C)c2C)nn1` [Example I-3], `Cc1ncc(C(=O)Nc2cc(N3CCN(C)CC3)c(C)c(C(F)(F)F)c2)cc1-n1cc(-c2cnn(C)c2C)nn1` [Example I-6] is lower in remaining activity at 2 µM: 8.7% for the first, 2.1% for the second.

Going from `Cc1ncc(C(=O)Nc2cc(C(C)(C)C)nn2C)cc1-n1cc(-c2cnn(C)c2C)nn1` [Example I-4] to `Cc1cn2c(-c3cn(-c4cc(C(=O)Nc5cc(C(C)(C)C)nn5C)cnc4C)nn3)cnc2cn1` [Example I-30], the remaining activity at 2 µM rises from 1.7% to 6.9%.

Going from `COc1ccc(NC(=O)c2cnc(C)c(-n3cc(-c4cnn(C)c4C)nn3)c2)cc1C(F)(F)F` [Example I-7] to `Cc1ncc(C(=O)Nc2cc(Br)c(C)c(C(F)(F)F)c2)cc1-n1cc(-c2cnn(C)c2C)nn1` [Example I-56], the remaining activity at 2 µM falls from 2% to 1.4%.

Going from `COc1c(NC(=O)c2cnc(C)c(-n3cc(-c4cnn(C)c4C)nn3)c2)cc(C(C)(C)C)cc1NS(C)(=O)=O` [Example I-9] to `COc1c(CNC(C)C)cc(C(F)(F)F)cc1NC(=O)c1cnc(C)c(-n2cc(-c3cnn(C)c3C)nn2)c1` [Example I-13], the remaining activity at 2 µM rises from 1.4% to 2.3%.

First: Cc1ncc(C(=O)Nc2cc(N3CCN(C)CC3)c(F)c(C(F)(F)F)c2)cc1-n1cc(-c2cnn(C)c2C)nn1 [Example I-10]
Second: CCN1CCN(c2cc(NC(=O)c3cnc(C)c(-n4cc(-c5cnn(C)c5C)nn4)c3)cc(C(F)(F)F)c2C)CC1 [Example I-57]
The remaining activity at 2 µM of the first is lower: 1.1% for the first, 2.3% for the second.

Compared with `Cc1ncc(C(=O)Nc2cc(CN3CCCC3)cc(C(F)(F)F)c2)cc1-n1cc(-c2cnn(C)c2C)nn1` [Example I-12], `Cc1ncc(C(=O)Nc2cc(CN3CCCC3)c(Cl)c(C(F)(F)F)c2)cc1-n1cc(-c2cnn(C)c2C)nn1` [Example I-53] is lower in remaining activity at 2 µM: 1.8% for the first, 1.4% for the second.

Going from `CC(=O)Nc1ncc(-c2cn(-c3cc(C(=O)Nc4cc(C(F)(F)F)ccn4)cnc3C)nn2)s1` [Example I-14] to `COc1cncc(-c2cn(-c3cc(C(=O)Nc4cc(C(F)(F)F)ccn4)cnc3C)nn2)c1` [Example I-29], the remaining activity at 2 µM rises from 1.4% to 2.5%.

First: CC(=O)Nc1ncc(-c2cn(-c3cc(C(=O)Nc4cc(CN5CCCC5)cc(C(F)(F)F)c4)cnc3C)nn2)s1 [Example I-15]
Second: CCN1CCN(c2cc(NC(=O)c3cnc(C)c(-n4cc(-c5cnc(NC(C)=O)s5)nn4)c3)cc(C(F)(F)F)c2C)CC1 [Example I-48]
The remaining activity at 2 µM of the first is lower: 1.4% for the first, 1.7% for the second.

First: Cc1ncc(C(=O)Nc2cc(N3CCN(C)CC3)cc(C(F)(F)F)c2)cc1-n1cc(-c2cncnc2)nn1 [Example I-18]
Second: COc1cncc(-c2cn(-c3cc(C(=O)Nc4cc(N5CCN(C)CC5)cc(C(F)(F)F)c4)cnc3C)nn2)c1 [Example I-24]
The remaining activity at 2 µM of the first is higher: 2.4% for the first, 1% for the second.

Compared with `CCN1CCN(c2cc(NC(=O)c3cnc(C)c(-n4cc(-c5cncnc5)nn4)c3)cc(C(F)(F)F)c2C)CC1` [Example I-20], `CCN1CCN(c2cc(NC(=O)c3cnc(C)c(-n4cc(-c5cccnc5)nn4)c3)cc(C(F)(F)F)c2C)CC1` [Example I-46] is higher in remaining activity at 2 µM: 1.9% for the first, 6.1% for the second.

First: Cc1ncc(C(=O)Nc2cc(C(C)(C)C)on2)cc1-n1cc(-c2cncnc2)nn1 [Example I-21]
Second: Cc1ncc(C(=O)Nc2cc(C(C)(C)C)on2)cc1-n1cc(-c2cncc(Br)c2)nn1 [Example I-34]
The remaining activity at 2 µM of the first is higher: 2.2% for the first, 1.5% for the second.

First: Cc1ncc(C(=O)Nc2cc(C(F)(F)F)ccn2)cc1-n1cc(-c2cncnc2)nn1 [Example I-23]
Second: Cc1cn2c(-c3cn(-c4cc(C(=O)Nc5cc(C(F)(F)F)ccn5)cnc4C)nn3)cnc2cn1 [Example I-32]
The remaining activity at 2 µM of the first is higher: 5.9% for the first, 1.5% for the second.

Going from `COc1cncc(-c2cn(-c3cc(C(=O)Nc4cc(N5CCN(C)CC5)c(F)c(C(F)(F)F)c4)cnc3C)nn2)c1` [Example I-25] to `CCN1CCN(c2cc(NC(=O)c3cnc(C)c(-n4cc(-c5cncc(OC)c5)nn4)c3)cc(C(F)(F)F)c2C)CC1` [Example I-26], the remaining activity at 2 µM falls from 2.2% to 1.4%.

Compared with `COc1cncc(-c2cn(-c3cc(C(=O)Nc4cc(C(C)(C)C)on4)cnc3C)nn2)c1` [Example I-27], `COCCNc1cncc(-c2cn(-c3cc(C(=O)Nc4cc(C(C)(C)C)on4)cnc3C)nn2)c1` [Example I-41] is lower in remaining activity at 2 µM: 3.3% for the first, 1.1% for the second.

Going from `COc1ccc(NC(=O)c2cnc(C)c(-n3cc(-c4cnc5cnc(C)cn45)nn3)c2)cc1C(F)(F)F` [Example I-33] to `COc1c(CNC(C)C)cc(NC(=O)c2cnc(C)c(-n3cc(-c4cnc5cnc(C)cn45)nn3)c2)cc1C(F)(F)F` [Example I-50], the remaining activity at 2 µM rises from 1.4% to 2.2%.

First: Cc1ncc(C(=O)Nc2cc(C(C)(C)C)on2)cc1-n1cc(-c2cncc(N3CCOCC3)c2)nn1 [Example I-35]
Second: Cc1ncc(C(=O)Nc2cc(C(C)(C)C)on2)cc1-n1cc(-c2cncc(N3CCCOCC3)c2)nn1 [Example I-36]
The remaining activity at 2 µM of the first is lower: 1.7% for the first, 1.8% for the second.

First: Cc1ncc(C(=O)Nc2cc(C(C)(C)C)on2)cc1-n1cc(-c2cncc(NC3CCOC3)c2)nn1 (centres unmarked) [Example I-37]
Second: Cc1ncc(C(=O)Nc2cc(C(C)(C)C)on2)cc1-n1cc(-c2cncc(NC3CCOCC3)c2)nn1 [Example I-40]
The remaining activity at 2 µM of the first is higher: 2.5% for the first, 1.4% for the second.

Compared with `Cc1ncc(C(=O)Nc2cc(C(C)(C)C)on2)cc1-n1cc(-c2cncc(N(C)C3CCOC3)c2)nn1` (centres unmarked) [Example I-38], `Cc1ncc(C(=O)Nc2cc(C(C)(C)C)on2)cc1-n1cc(-c2cncc(N3CCN(C)CC3)c2)nn1` [Example I-39] is lower in remaining activity at 2 µM: 2.4% for the first, 1.5% for the second.

Going from `CCN1CCN(c2cc(NC(=O)c3cnc(C)c(-n4cc(-c5cncs5)nn4)c3)cc(C(F)(F)F)c2C)CC1` [Example I-43] to `CCN1CCN(c2cc(NC(=O)c3cnc(C)c(-n4cc(-c5cncc(C#N)c5)nn4)c3)cc(C(F)(F)F)c2C)CC1` [Example I-49], the remaining activity at 2 µM rises from 1.1% to 6.2%.

Compared with `Cc1cn2c(-c3cn(-c4cc(C(=O)Nc5cc(N6CCN(C)CC6)c(C)c(C(F)(F)F)c5)cnc4C)nn3)cnc2cn1` [Example I-44], `Cc1cn2c(-c3cn(-c4cc(C(=O)Nc5cc(N6CCN(C)CC6)cc(C(F)(F)F)c5)cnc4C)nn3)cnc2cn1` [Example I-45] is lower in remaining activity at 2 µM: 3.3% for the first, 3.2% for the second.

First: CCN1CCN(c2cc(NC(=O)c3cnc(C)c(-n4cc(-c5ccc(NC(C)=O)nc5)nn4)c3)cc(C(F)(F)F)c2C)CC1 [Example I-47]
Second: Cc1ncc(C(=O)Nc2cc(OC(F)(F)F)cc(N3CCN(C)CC3)c2)cc1-n1cc(-c2cncs2)nn1 [Example I-51]
The remaining activity at 2 µM of the first is lower: 2% for the first, 4% for the second.

Compared with `Cc1ncc(C(=O)Nc2cc(CN(C)C)c(Cl)c(C(F)(F)F)c2)cc1-n1cc(-c2cnn(C)c2C)nn1` [Example I-52], `Cc1ncc(C(=O)Nc2cc(CNC(C)C)c(Cl)c(C(F)(F)F)c2)cc1-n1cc(-c2cnn(C)c2C)nn1` [Example I-54] is lower in remaining activity at 2 µM: 1.6% for the first, 1.2% for the second.

In the case of `Cc1ncc(C(=O)Nc2cc(CNCC(C)C)c(Cl)c(C(F)(F)F)c2)cc1-n1cc(-c2cnn(C)c2C)nn1` [Example I-55], the remaining activity at 2 µM is reported as 1.2%.

Same assay, conditions: measurement at 0.29 μM (*); 100% = no inhibition, 0% = total inhibition; read-out: % CTL (residual activity of the enzyme relative to DMSO control)

`CC(=O)Nc1ncc(-c2cn(-c3cc(C(=O)Nc4cc(N5CCN(C)CC5)cc(C(F)(F)F)c4)cnc3C)nn2)s1` [Example I-16] was tested, and the remaining activity at 0.29 µM was 2%.

Reference: patent publication US8778929B2, “Substituted heteroaryl inhibitors of B-RAF” (Boehringer Ingelheim International GmbH, priority 2008, dated 2014)
